According to PubChem BioAssay (NCI):
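Where inhibition never reached the appropriate level, the endpoint shown equals the highest concentration tested. Otherwise, values were interpolated linearly from a five-concentration, 48-hour dose response in 96-well plates. GI50 = concentration required for 50% inhibition of growth. TGI: concentration producing complete growth inhibition.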

How the values were obtained:
Experiment in all cases: inhibition of tumour cell growth, NCI panel, 48 h
[1] = system: TK-10 renal
[2] = system: NCI-H460 lung
[3] = system: UO-31 renal
[4] = system: OVCAR-3 ovarian
[5] = system: RXF 393 renal
[6] = system: HOP-62 NSCLC
[7] = system: MOLT-4 leukemia
[8] = system: KM12 colon
[9] = system: SF-268 CNS
[10] = system: OVCAR-8 ovarian

Structure (SMILES)	GI50 [1]	TGI [1]	GI50 [2]	TGI [2]	GI50 [3]	TGI [3]	GI50 [4]	TGI [4]	GI50 [5]	TGI [5]	GI50 [6]	TGI [6]	GI50 [7]	TGI [7]	GI50 [8]	TGI [8]	GI50 [9]	TGI [9]	GI50 [10]	TGI [10]
COc1cc([N+](=O)[O-])c2ncccc2c1O	10.7 µM	94.5 µM	2860 nM	> 100 µM	2050 nM	10.4 µM	4.76 µM	37.3 µM	10.6 µM	30.1 µM	2.05 µM	4.96 µM	49.1 µM	> 100 µM	2.18 µM	7.02 µM	9.79 µM	67.1 µM	8.71 µM	> 100 µM
O=C1CCCc2c(O)ccc(O)c21		> 100 µM		> 100 µM		> 100 µM		> 100 µM		> 100 µM		> 100 µM		> 100 µM		> 100 µM		> 100 µM		> 100 µM
O=C(NNc1ccc([N+](=O)[O-])cc1)C1OC(CO)C(O)C1O (stereo unspecified)		> 100 µM		> 100 µM		> 100 µM		> 100 µM		> 100 µM		> 100 µM		> 100 µM		> 100 µM		> 100 µM		> 100 µM
CC1=CC(=O)c2[nH]c3ccccc3c2C1=O	5.04 µM	9.24 µM	8110 nM	> 25 µM	4000 nM	7.4 µM		8.02 µM	3.47 µM	6.74 µM		> 25 µM	5.36 µM	15.9 µM	4.4 µM	9.01 µM	4.36 µM	7.89 µM		7.45 µM
CCc1ccc(/C=C2/SC(=S)NC2=O)cc1	23.4 µM	> 85.4 µM	20700 nM	54.8 µM	13200 nM	33.1 µM	16.9 µM	35.3 µM	18.9 µM	55.7 µM	25.7 µM	78.2 µM	23.5 µM	84.3 µM	25.1 µM	> 77.3 µM	24.5 µM	> 100 µM	25.9 µM	> 88.8 µM
Cc1nc(Nc2ccc([N+](=O)[O-])cc2)sc1C(=O)/C=C/c1ccc(N(C)C)cc1		> 100 µM		> 100 µM		> 100 µM		> 100 µM		> 100 µM		> 100 µM		> 100 µM		> 100 µM		> 100 µM		> 100 µM
N#CC(/C(=N\NC(N)=S)C(=O)NC1C2CC3CC(C2)CC1C3)c1ccc(Cl)cc1 (stereo unspecified)		> 100 µM		> 100 µM		> 100 µM		> 100 µM		> 100 µM		> 100 µM		> 100 µM		> 100 µM		> 100 µM		> 100 µM
Cc1[nH]nc(C(=O)N/N=C/c2cccs2)c1N=NN(C)C		73.5 µM		34.7 µM		21.9 µM		> 100 µM		36 µM		50.1 µM		90.7 µM		> 100 µM		37.1 µM		33.1 µM
COc1cc(C(N)=O)c(OC)c(OC)c1OC		> 100 µM		> 100 µM		> 100 µM		> 100 µM		> 100 µM		> 100 µM		> 100 µM		> 100 µM		> 100 µM		> 100 µM
Cc1cc(C#Cc2ccccc2)ccc1-n1c(/C=C/c2ccc(O)cc2)nc2ccccc2c1=O	2.62 µM	32.8 µM	2220 nM	6.18 µM	2060 nM	7.65 µM	3.6 µM	25.7 µM	3.51 µM	> 100 µM	13.1 µM	> 100 µM	2.36 µM	8.33 µM	3.24 µM	12.6 µM	4.56 µM	> 100 µM	3.98 µM	> 100 µM
CCCCCCCCSC(SCCCCCCCC)=C1C(=O)N(c2ccccc2)N=C1C		> 100 µM		> 100 µM		> 100 µM		> 100 µM		> 100 µM		> 100 µM		82.2 µM		> 100 µM		> 100 µM		> 100 µM
O=C(/C=C/c1cccs1)Nc1ncc(Cc2ccccc2F)s1		> 100 µM	335 nM	> 100 µM	437 nM	> 100 µM	0.216 µM	0.671 µM	0.192 µM	0.508 µM	0.407 µM	> 100 µM	0.378 µM	> 100 µM	0.205 µM	> 100 µM	0.757 µM	> 100 µM	0.508 µM	> 100 µM
O=C1CCC(c2ccccc2)(c2ccccc2)CC1		> 100 µM		> 100 µM		> 100 µM		> 100 µM		> 100 µM		> 100 µM		> 100 µM		> 100 µM		> 100 µM		> 100 µM
CCN(CC)c1ccc(/C=N\NC(=O)c2cccc(Nc3ccnc(C(F)(F)F)c3)c2)c(O)c1	0.371 µM	> 100 µM	199 nM	2.24 µM	202 nM	2.69 µM	0.271 µM	> 100 µM	0.216 µM	1.9 µM	0.184 µM	1.96 µM	0.126 µM	1.49 µM	0.342 µM	> 100 µM	0.083 µM	> 27.3 µM	0.342 µM	> 100 µM
COCCOC(=O)CCn1cc(F)c(=O)[nH]c1=O	6.77 µg/mL	> 150 µg/mL	0.821 µg/mL	> 150 µg/mL	1.82 µg/mL	> 150 µg/mL	5.79 µg/mL	> 150 µg/mL	13.8 µg/mL	> 150 µg/mL	17.3 µg/mL	> 150 µg/mL	19.7 µg/mL	> 150 µg/mL	5.93 µg/mL	> 150 µg/mL	102 µg/mL	> 150 µg/mL	32 µg/mL	> 150 µg/mL
COc1cc(C=NCC(=O)CSC(c2ccccc2)c2ccccc2)cc(OC)c1OC	14.5 µM	79.1 µM	13000 nM	> 100 µM	22600 nM	> 100 µM	13.3 µM	> 100 µM	23.7 µM	96.4 µM	33.2 µM	> 100 µM	6.96 µM	89.9 µM	25.3 µM	82.1 µM	34.6 µM	> 100 µM	19.2 µM	> 100 µM
